Data taken from patent publication US20110212116A1, “IMMUNOGENIC PEPTIDES AND USES THEREOF” (Cancer Research Technology Limited, priority 2008, published 2011).

What was measured:
[1] = test system: healthy donor T cells; assay: IFNγ ELISA of healthy donor T cells stimulated with peptide loaded autologous DCs; type: cell-based, human; conditions: for IFNγ responses following stimulation with autologous DCs loaded with wild type peptide: in one of three normal donors tested; for IFNγ production from normal donor T cells: modified peptides P11-P16, six normal donors
Procedure: PBMCs were prepared from healthy donor buffy coats as described above. Monocytes were obtained from newly sourced buffy coats, or cells thawed at 10^6/ml in warm X-VIVO medium, 1% human AB serum and plated in 90 mm TC dishes. Plates were incubated at 37° C. for at least 4 hours and non adherent cells removed by gently washing with media or HBSS or CD14^+ cells were positively selected as described. The remaining T cell enriched cells were cryopreserved for use as effectors in later assays. The CD14^+ fraction/adherent cells were cultured in IL-4 (1000 IU/ml) and GM-CSF (800 U/ml) for 5 days to induce differentiation to a dendritic cell (DC) phenotype. On day 3 fresh IL-4 and GM-CSF were added. On day 5 TNFα (10 ng/ml), IL-6 (1000 U/ml) and IL-1β (10 ng/ml) all from R&D systems UK and PGE2 (1 μg/ml) (from Sigma, UK) were added to plates. On day 6 DCs were harvested from plates and washed with HBSS to remove residual cytokines before use in immunological experiments. Analysis of DC phenotype was carried out by flow cytometry.
IL-2 and IFNγ levels were determined with Duo set ELISA Development System (R&D Systems), according to the manufacturer's instructions. Supernatants were collected at various time points (days 3, 7, 10 and 14) in order to detect peak cytokine levels.
(§1) After 24 hours in maturation cytokines, DCs were incubated with peptide (50 μg/ml) for 4 hours. PBMCs or CD3^+ cells from healthy donors or patients with solid tumours were seeded into a 12-well plate, in X-VIVO 15 at a density of 2×10^6/ml. Peptide pulsed, monocyte derived DCs were washed and prepared at 2×10^5/ml. PBMC cultures received peptide pulsed DCs at a stimulator:effector ratio of […], or in the case of unstimulated controls, medium only. IL-7 was added to cultures at a final concentration of 10 U/ml on day 3. Cultures were restimulated by addition of peptide pulsed DCs on, day 7, and in some cases day 14, together with IL-7 and IL-2 (both at 10 U/ml). 200 μl of culture supernatants were collected at various intervals throughout the culture period and replaced with fresh medium. In the case of AML patient cultures, T2 cells were pulsed with peptide and used as stimulators in the same way as autologous DCs described above. Culture supernatants were analysed for IFNγ content by ELISA. After the 2-3 week culture period, stimulated effector cells were washed and analysed by pentamer staining, intracellular cytokine staining or ELISPOT assays.

[2] = test system: HHD mice; assay: Mouse IFNγ-ELISpot after pDOM-epitope DNA vaccination; conditions: HHD mice, prime only, 14 days later
Procedure: HHD mice at 6 to 10 weeks of age were injected intramuscularly (i.m.) into both quadriceps with a total of 50 μg DNA in saline solution on day 0. Unless stated otherwise mice were boosted with the same DNA vaccine delivered with in vivo electroporation on day 28 as previously described^5.
Vaccine-specific IFNγ secretion by lymphocytes from individual mice was assessed ex vivo (BD ELISpot Set, BD PharMingen, San Diego, Calif.) on day 14 or 36, as described previously with some modifications^11. Briefly, viable lymphocytes were selected from splenocyte preparations by density centrifugation. […] Data are expressed as the frequency of spot-forming cells (SFCs) per million lymphocytes. For analysis of peptide-specific T-cell sensitivity, splenic lymphocytes from immunized mice were incubated with a range of PASD1 peptide concentrations and the frequency of specific cells assessed by ELISpot analysis as described. The number of SFC/million cells at the peptide concentration inducing the greatest response was assigned a value of 100%. For each peptide concentration tested the % maximal response was then calculated by the formula: (experimental SFCs per million cells/maximal SFCs per million cells)×100% for each individual animal.

[3] = test system: peptide loaded targets; type: cell-based
[4] = test system: AML patient CD8+ T cells; assay: Pentamer staining, AML patient CD3+ T cells stimulated with peptide loaded T2 cells; type: cell-based, human; conditions: AML patients, after two rounds of ex vivo stimulation
Procedure: (§2) Assessment of peptide specific T cells was carried out by staining 10^6 effector cells with 10 μl of PE labeled, HLA-A*0201 pentamers (custom made by Proimmune) for 10 minutes, at room temperature, in the dark. Cells were then washed and co-stained with CD8-FITC for 20 minutes at room temperature. The lymphocyte gate was selected according to FSSCH/SSCH and 50,000 events acquired. Staining with control pentamers was carried out for each sample.
as §1
(§3) The T2 line was first examined for immune stimulatory molecules by FACS analysis. […] T2 cells were cultured in serum free conditions to reduce the non-human antigens present in the FCS. T2 cells were incubated with peptide for 4 hours, washed and irradiated and seeded in 96 well plates. Purified T cells (Miltenyi) from patients were added and IFNγ secretion or the expansion of CD8^+ epitope specific T cells measured using pentamers.
Prior to each restimulation, cells were resuspended and aliquots taken for pentamer staining.

[5] = test system: healthy donor CD8+ T cells; assay: Pentamer staining, healthy donor CD3+ cells stimulated with peptide pulsed DCs; type: cell-based, human; conditions: two of four normal donors, after four stimulations
Procedure: as §2
as §1, with “200 μl of culture supernatants were collected at various intervals throughout the culture period and replaced with fresh medium. In the case of AML patient cultures, T2 cells were pulsed with peptide and used as stimulators in the same way as autologous DCs described above.” left out, “assays. […]” for “assays.”

[6] = test system: solid tumour patient CD8+ T cells; assay: Pentamer staining, solid tumour patient CD3+ T cells stimulated with peptide loaded autologous DCs; type: cell-based, human
Procedure: as §2, §1
There have been no reports of PASD1 expression in primary head and neck, prostate or colon cancer primary cells to date, but the head and neck cancer cell line Hn5^19, the lung cancer line H1299^19 and the colon cancer cell line SW480^24 are PASD1 positive. This raises the possibility that some solid cancer patients may be able to raise a response to the PASD1 peptides. Cells used in these experiments were isolated from leukophoresis samples taken several months after the cessation of treatment. Negatively purified CD3^+ T cells were stimulated with autologous monocyte derived DCs as described previously. Pentamer analysis was carried out after each stimulation.

[7] = test system: patient T cells; assay: IFNγ secretion by patient T cells following in vitro peptide stimulation; type: cell-based, human; conditions: colon cancer patient T cells stimulated with peptide
Procedure: FIG. 4. IFNγ secretion by patient T cells following in vitro stimulations. (A) IFNγ levels in peptide stimulated cultures from AML patients (same as shown in FIGS. 3 B and E) as measured by ELISpot assays. […] Graphs show IFNγ levels at day 10 (y-axis).
as §1, §3

Substance | IFNγ responses following stimulation with autologous DCs loaded with wild type peptide [1] | Secretion of IFNγ in cultures of CD4+ depleted effector cells [1] | IFNγ production from normal donor T cells [1] | Killing of peptide loaded targets (CTL assay) [3] | also measured
P4: wild type PASD1 nonamer, SEQ ID NO. 1 (LQNPRDVSV; listed as Homo sapiens) | generated some IFNγ responses |  |  |  | 
P8: wild type PASD1 peptide, SEQ ID NO. 9, PASD1 691-699 (RLWQELSDS; listed as Homo sapiens) | generated some IFNγ responses |  |  |  | IFNγ secretion (ELISpot) against the peptide of the immunisation [2]: does not
P9: wild type PASD1 nonamer, SEQ ID NO. 11 (KLQERKKWQ; listed as Homo sapiens) | generated some IFNγ responses |  |  |  | 
P15: PASD1 peptide analogue with a single amino acid change, PASD1 587-595 (LINPRDVSV) |  | almost completely abolished | highest levels | did not occur | Pentamer positive cells, frequency of the CD8+ cells [4]: 0.02%; Pentamer positive T cells [5]: small population; Pentamer positive cells, frequency of CD8+ cells ([6]; head and neck patient, absence of peptide stimulation): same low frequency; Pentamer positive cells, frequency of the CD8+ population ([6]; head and neck patient, after peptide stimulation (P15: three rounds)): 0.06%; Pentamer positive cells ([6]; head and neck patient, fourth stimulation): did not expand this further; Pentamer positive cells ([6]; prostate cancer patient, up to four stimulations): No pentamer positive cells were detected; Specific IFNγ secretion by ELISpot [7]: not
P16: PASD1 peptide analogue with a single amino acid change, PASD1 587-595 (LVNPRDVSV) |  | almost completely abolished | highest levels | did not occur | 
